SMILES strings stand for the structures.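 Method: 48-hour compound exposure of cells in 96-well plates, five concentrations, linear interpolation of endpoints. Here, GI50 denotes the concentration required for 50% inhibition of growth. TGI is the concentration that stops growth completely.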 Some results are limits rather than exact numbers.

This note sets out measurements from PubChem BioAssay (NCI).

What all share (assay): NCI-60 cell line screen, 48 h
Experiment [1] deals with SK-MEL-2 melanoma.
For experiment [2], the system named is ACHN renal.
Experiment [3] has as its system SNB-75 CNS.
In experiment [4] the test system is SNB-19 CNS.
Experiment [5] deals with SW-620 colon.
Experiment [6] concerns HCC-2998 colon.
The test system of experiment [7] is HCT-116 colon.
For experiment [8], the system named is DU-145 prostate.
For experiment [9], the system named is NCI/ADR-RES ovarian.
The subject of experiment [10] is HS 578T breast.

On to `COc1ccccc1C1C(C(=O)O)=C(CO)Oc2cc3c(cc21)OCO3` (stereo not drawn), for which the TGI in [1], in experiment [2], in experiment [3], in experiment [4] and in [5] was greater than 100 µM in each case.
Consider `C[C@]12C=CC(=O)C=C1CC[C@H]1[C@@H]3C[C@@H](O)[C@](O)(C(=O)CO)[C@@]3(C)C[C@H](O)[C@@]12F`, for which the TGI in experiment [6], in experiment [1], in experiment [2], in experiment [7], in experiment [3] and in experiment [4] was greater than 100 µM in each case. This compound also showed a TGI in [5] greater than 100 µM.
Regarding `N#C/C(C(=O)Nc1ccccc1)=C(/N)N1CCOCC1`, the TGI in experiment [8], in experiment [6], in experiment [1], in experiment [2], in experiment [7] and in experiment [3] was greater than 100 µM in each case. In addition, the TGI in experiment [9], in experiment [4] and in experiment [5] was greater than 100 µM each time.
Consider `CC1CC=CC(O)C1` (stereo not drawn), for which the TGI in experiment [6], in experiment [1], in experiment [7], in [3], in [9] and in experiment [4] was greater than 100 µM each time. For the same compound, in [5], the TGI is greater than 100 µM.
As for `CC(=O)n1nc(-c2ccccc2)n(/N=C/c2ccc([N+](=O)[O-])cc2)c1=O`, the TGI in experiment [8], in experiment [6], in experiment [1], in experiment [2], in [7] and in experiment [3] was greater than 100 µM each time. The TGI in experiment [9], in experiment [4] and in experiment [5] was greater than 100 µM in each case.
In the case of `CC(=O)NC1C(OCc2ccccc2)OC(CO)C(O)C1OC(C)C(=O)NC(C)C(=O)NC(CCC(=O)NCCCNc1c2ccccc2nc2cccc([N+](=O)[O-])c12)C(N)=O` (stereo not drawn), the TGI in [6] is 2.52 µM; in experiment [2], 6.9 µM; in [10] it was 40.4 µM; in experiment [7], 2.38 µM; in experiment [3], 9.92 µM; in experiment [9] it was 65.7 µM. For the same compound, the TGI in experiment [4] was greater than 100 µM; in experiment [5], 11.6 µM.
For `CCOC(=O)C1=C(C)N(C)C23OC4(C(=O)OC)CC2c2ccccc2C1N3C4=O` (stereo not drawn), the TGI in [8], in experiment [6], in experiment [1], in experiment [2], in experiment [7] and in experiment [3] was greater than 100 µM in each case. The TGI in experiment [9], in [4] and in experiment [5] was greater than 100 µM in each case.
`O=[N+]([O-])c1ccc(/C=N/n2c(CO)nc3ccccc32)o1`: the TGI stood at 13.9 µM in experiment [8]; 24.1 µM in [1]; 17.3 µM in [2]; 35.6 µM in [10]; 7.86 µM in [7]; 57.1 µM in experiment [3]. For the same compound, the TGI in [9] came to 74.7 µM; in [4], 30.7 µM; in [5] it was 29.1 µM.
On to `CC(C)(C)OC(=O)NCC(O)CNC(=O)OC(C)(C)C`, for which the TGI in [8], in [6], in [2], in experiment [10], in [7] and in [9] was greater than 100 µM throughout. The TGI in [4] and in experiment [5] was greater than 100 µM throughout.
In the case of `COC(=O)Cc1cc(O)c(C/C=C(\C)CC/C=C(\C)C(O)C(=O)C=C(C)C)cc1O` (stereo not drawn), the TGI in experiment [8] is greater than 100 µM; in experiment [1], 48.6 µM; in experiment [2] it was 71 µM; in [10], greater than 100 µM; in experiment [7] it was 31.1 µM; in experiment [3], 56.4 µM. Also, the TGI turned out to be 58.4 µM in [9], 86 µM in experiment [4] and 87.8 µM in experiment [5].
As to `C[C@@H]1C[C@H]2[C@@H]3CCC4=CC(=O)C=C[C@]4(C)[C@@]3(Cl)[C@@H](Cl)C[C@]2(C)[C@@]1(O)C(=O)COP(=O)(O)O`, the TGI in experiment [8], in [6], in experiment [1], in [2], in experiment [10] and in experiment [7] was greater than 100 µM throughout. Also, the TGI in experiment [3], in [4] and in experiment [5] was greater than 100 µM in each case.
On to `O=[N+]([O-])c1ccc(C=C2C(Cl)=C(Cl)C(Cl)=C2Cl)cc1`, for which the GI50 in experiment [1] is 2.77 µM; in experiment [7], 1.79 µM; in experiment [3], 2.05 µM; in [9] it was 3.05 µM; in [4], 9.68 µM. The TGI was 8.89 µM in [1]; 3.37 µM in experiment [7]; 6.98 µM in [3]; 17.2 µM in experiment [9]; greater than 100 µM in experiment [4].
Turning to `C[N+](C)([O-])CCC=C1c2ccccc2CCc2ccccc21`, the TGI in experiment [8] was 70.9 µM; in [1] it was 36.8 µM; in experiment [2], greater than 100 µM; in experiment [10], 64.9 µM; in experiment [7], greater than 100 µM; in experiment [3] it was 75.4 µM. The TGI in [9] is 69.3 µM; in [4] it was greater than 100 µM; in experiment [5], 62.3 µM.
With `NC(Cc1cccc([N+](=O)[O-])c1)C(=O)O` (stereo not drawn), the TGI in [8], in experiment [6], in experiment [1], in experiment [2], in [10] and in [7] was greater than 100 µM each time. For the same compound, the TGI in [9], in [4] and in experiment [5] was greater than 100 µM in each case.
Regarding `Cc1cc2nc3c(C#N)c(-c4ccccc4)cc(Nc4ccc(Cl)cc4)n3c2cc1C`, the TGI in experiment [6], in experiment [1], in experiment [2], in experiment [7], in [3] and in [9] was greater than 100 µM each time. Also, the TGI in experiment [4] and in experiment [5] was greater than 100 µM each time.
`CNC(=S)N(C)C(=S)Nn1c(=O)c(C)nn(C)c1=S`: the TGI in experiment [2], in experiment [7], in experiment [3], in experiment [4] and in experiment [5] was greater than 100 µM each time.
Regarding `COc1cc(C[S+]2CCCC2)c(SC)cc1C[S+]1CCCC1`, the TGI in experiment [6], in [1], in experiment [2], in experiment [7], in [3] and in experiment [5] was greater than 100 µM in each case.
Take `CC(=O)OC1CCC2(C)C3CCC4(C)C(c5ccc(=O)oc5)CC5OC54C3CCC2(O)C1` (stereo not drawn): the TGI in experiment [6] came out at 14 µM; in experiment [1], 13 µM; in [7], 4.61 µM; in experiment [3] it was 5.77 µM; in experiment [9], 6.99 µM; in [4], 31.8 µM. In [5], this compound registered a TGI of 4.04 µM.
Turning to `O=C(CC(=O)Nc1cccc(C(=O)O)c1)Nc1cccc(C(=O)O)c1`, the TGI in experiment [8], in experiment [6], in experiment [1], in experiment [2], in [10] and in experiment [7] was greater than 100 µM throughout. Besides, the TGI in [9], in [4] and in experiment [5] was greater than 100 µM each time.
Regarding `COc1ccc(C2CC(c3cccc(Nc4ccncc4)c3)=NN2c2cc(Cl)cc(Cl)c2)cc1` (stereo not drawn), the GI50 in experiment [8] is 1.89 µM; in [6], 1.47 µM; in experiment [1] it was 2.36 µM; in experiment [2] it was 1.7 µM; in experiment [3] it was 2.09 µM; in experiment [9], 1.72 µM. Besides, in experiment [5], the GI50 is 1.71 µM. For the same compound, the TGI in experiment [8] was 3.58 µM; in experiment [6], 2.85 µM; in experiment [1], 5.02 µM; in [2], 3.08 µM; in experiment [3] it was 11.7 µM; in experiment [9], 3.27 µM. The TGI in [5] is 3.26 µM.
Take `c1ccc2sc(C3(N4CCCC4)CCCCCC3)cc2c1`: the TGI in experiment [8] was greater than 100 µM; in experiment [6] it was 27.1 µM; in experiment [2], 60.7 µM; in experiment [7] it was 27.7 µM; in experiment [3], 34.5 µM; in experiment [9], 44.4 µM. For the same compound, the TGI in experiment [4] stood at 29.9 µM; in experiment [5], 34.4 µM.
Regarding `O=C(OC(=O)n1ccc2ccccc21)n1ccc2ccccc21`, the TGI in experiment [6], in experiment [1], in [7], in experiment [3], in [9] and in [4] was greater than 100 µM throughout. In experiment [5], the TGI was greater than 100 µM.
On to `CCCCCN=Cc1c(O)c(O)c(C(C)C)c2cc(C)c(-c3c(C)cc4c(C(C)C)c(O)c(O)c(C=NCCCCC)c4c3O)c(O)c12`, for which the TGI in experiment [8] was greater than 100 µM; in experiment [6], 35.9 µM; in experiment [1], greater than 100 µM; in [2], 31.3 µM; in experiment [10], greater than 100 µM; in [7], greater than 100 µM. The TGI in experiment [9] was greater than 100 µM; in [4], 18.8 µM; in experiment [5], greater than 100 µM.
Turning to `COc1cc(/C=C2\CCC(C)C3C2=NN(C(C)=O)C3c2cc(OC)c(OC)c(OC)c2)cc(OC)c1OC` (stereo not drawn), the TGI in experiment [8] was greater than 100 µM; in experiment [6] it was greater than 100 µM; in [1], greater than 42.4 µM; in experiment [2], greater than 100 µM; in [10], greater than 92.2 µM; in experiment [7], greater than 100 µM. For the same compound, the figures for the TGI in [3], in [4] and in experiment [5] were greater than 54.6 µM, greater than 100 µM and greater than 100 µM, respectively.
Turning to `O=NN(CCCl)C(=O)NC1CCSc2ccccc21` (stereo not drawn), the TGI in experiment [6], in experiment [1], in [7], in [3], in experiment [9] and in experiment [4] was greater than 100 µM in each case. Also, the TGI in experiment [5] is greater than 100 µM.
Turning to `Cc1ccc(/C=N/n2c(=O)[nH]c3ccccc3c2=O)cc1`, the TGI in experiment [8], in experiment [1], in experiment [2], in experiment [10], in experiment [7] and in experiment [4] was greater than 100 µM in each case. Besides, the TGI in experiment [5] was greater than 100 µM.
With `S=C(NCc1ccccc1)c1nc[nH]c1C(=S)NCc1ccccc1`, the TGI turned out to be 21.6 µM in experiment [8]; 23.6 µM in experiment [6]; 22.2 µM in experiment [1]; 7.51 µM in [2]; 17.9 µM in experiment [7]; 19.5 µM in [3]. Further, the TGI in experiment [9] amounted to 16.3 µM; in [4] it was 18.6 µM; in [5] it was 20.8 µM.
For the compound `Cc1ccc(S(=O)(=O)Oc2cc(-c3ccccc3)nc3ccccc23)cc1`, the TGI in experiment [6] amounted to 4.49 µM; in experiment [1] it was 17 µM; in experiment [7], 15.9 µM; in [3] it was 6.93 µM; in experiment [9] it was 11.6 µM; in experiment [4] it was 12.3 µM. Besides, in [5], the TGI was greater than 47.3 µM.
Turning to `CC(=O)OCCn1cnc2nc(Nc3ccccc3)nc(Cl)c21`, the TGI in [8], in [6], in [2], in experiment [10], in experiment [7] and in [9] was greater than 100 µM each time. Also, the TGI in experiment [4] and in [5] was greater than 100 µM in each case.
Regarding `Cc1ccc2c(n1)C(=O)c1[nH]c3ccccc3c1C2=O`, the GI50 in [8] was 1.19 µM; in experiment [6], 1.88 µM; in [1], 3.36 µM; in [2], 2.1 µM; in experiment [10] it was 2.54 µM; in experiment [9] it was 2.28 µM. The GI50 was 2.7 µM in experiment [4] and 2.97 µM in experiment [5]. The TGI in experiment [8] is 2.53 µM; in [6] it was 6.37 µM; in experiment [1], greater than 100 µM; in experiment [2], 18.6 µM; in experiment [10], 7.16 µM; in experiment [9] it was 9.29 µM. Moreover, the TGI in [4] and in experiment [5] was greater than 100 µM throughout.
